According to EP1401829B1, “NOVEL HETEROCYCLIC ANTIBACTERIAL COMPOUNDS” (Microbiotix, Inc., priority 2001, dated 2002):
≈ marks a conversion by molar mass, not a printed value. Read-outs that look alike come from different tables or passages of the source.

Columns and labels:
E. fecium = assay: Minimal Inhibitory Concentration (MIC) determination, 96 well plates; format: cell-based, Enterococcus fecium; conditions: Enterococcus; HBI medium, 16 to 18 hours at 37°C; read-out: MIC (µg/ml) E. fecium
Procedure, shortened: (§1)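 Broth growth in Heart-Brain Infusion medium, seeded at about 1x10^5 CFU/ml, 16 to 18 hours at 37°C. Growth read at OD 600 nm as percent of untreated control; five concentrations per drug, five data points each, MIC reported in µg/ml.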

E. fecalis = assay: as above; format: cell-based, Enterococcus fecalis; conditions: Enterococcus; HBI medium, 16 to 18 hours at 37°C; read-out: MIC (µg/ml) E. fecalis
Procedure, shortened: as §1

S.aureus (Smith) = assay: as above; format: cell-based, Staphylococcus aureus; conditions: Staphylococcus aureus
Procedure, shortened: as §1

MRSA1132 = assay: MIC against clinically relevant strains; format: cell-based; conditions: Staphylococcus aureus; methicillin resistant S. aureus strain
Experimental: (§2) The following methods were used to characterize representative compounds. Minimal Inhibitory Concentration (MIC) determinations. MIC values were determined in 96 well plates, with bacterial growth monitored at OD 600 nm in 200µl following an initial bacterial seeding at approximately 1x10^5 colony forming units (CFU)/ml. Each drug is evaluated at five concentrations, with five data points at each dilution. MIC values (µg/ml) were determined against actively growing cultures in Heart-Brain Infusion (HBI) medium. Cell growth in cultures supplemented with a test compound was calculated as a percent of control at OD 600 nm after 16 to 18 hours at 37°C. This plate format conserves test compound and provides precise, quantitative data with low standard deviation determinations. Polymerase IIIC (Pol IIIC) assay. DNA polymerase activity (or inhibition thereof) was measured in a 96-well plate format. B. subtilis Pol IIIC was isolated as described by Hammond and Brown (Protein Expr. Purif., 3: 65-70 (1992)). Each 25 µl assay contained 30 mM Tris, pH 7.5, 10 mM magnesium acetate, 4 mM dithiothreitol, 20% glycerol, with 25 µM dATP, dCTP, dGTP and 10 µM dTTP (^3H-labelled at 1.44 Ci/mmole) and 0.4 mg/ml activated calf thymus DNA as substrates, as described previously (see Barnes et al, op. cit). Assays were initiated by the addition of 0.025 to 0.06 units of enzyme 1 unit is the amount required to incorporate 250 pmoles of [^3H] dTMP in a standard assay), incubated for 10 minutes at 30°C and terminated by the addition of 200 µl of cold 10% trichloroacetic acid (TCA),10 mM sodium pyrophosphate. Precipitated labeled DNA was collected on glass fiber filter plates, washed, dried, and counted in a liquid scintillation counter. Determination of Ki values. DNA polymerase activity was measured in a 96-well plate format in the absence of dGTP or dATP, depending on the structure of the test compound. Each 25 µl assay contained 30 mM Tris, pH 7.5, 10 mM magnesium acetate, 4 mM dithiothreitol, 20% glycerol, with 25 µM dATP, dCTP, and 10 µM dTTP (^3H-labelled at 1.44 Ci/mmole) and 0.4 mg/ml activated calf thymus DNA as substrates, as described previously. To each well were added 2 µl of compound solution to give final concentrations ranging from 20 - 0.027 µg/ml in the assay. Assays were initiated by the addition of 0.025 to 0.06 units of enzyme (1 unit is the amount required to incorporate 250 pmoles of [^3H] dTMP in a standard assay), incubated for 10 minutes at 30 °C and terminated by the addition of 200 µl of cold 10% trichloroacetic acid, 10 mM sodium pyrophosphate. Precipitated labeled DNA was collected on glass fiber filter plates, washed, dried, and counted in a liquid scintillation counter. Ki is the concentration of test compound that reduces the control polymerase IIIC activity by 50 percent.
(§3) Compounds were also tested for antibacterial activity against certain clinically relevant strains, e.g., methicillin sensitive (MSSA) and methicillin resistant (MRSA) strains of Staphylococcus aureus.

MRSA1094 = assay: MIC against clinically relevant strains; format: cell-based; conditions: Staphylococcus aureus; methicillin resistant S. aureus strain
Experimental: as §2, §3

MRSA 1123 = assay: MIC against clinically relevant strains; format: cell-based; conditions: Staphylococcus aureus, methicillin resistant S. aureus strain
Experimental: as §2, §3

[1] = HBI medium, 16 to 18 hours at 37°C, read-out: MIC (µg/ml) S.aureus (Smith)
[2] = table of MSSA/MRSA strains, read-out: MIC (µg/ml) S. aureus (Smith)

CCc1cc(Nc2cc(=O)n(CCCCN3CCN(c4c(F)cc5c(=O)c(C(=O)O)cn(C6CC6)c5c4F)CC3C)c(=O)[nH]2)ccc1C (stereo not drawn) [Compound 70, 3-{4-[1-(1-cyclopropyl-3-carboxy-4-oxo-6,8-difluoro-7-quinolyl)-3-methyl-4-piperazinyl]butyl}-6-(3-ethyl-4-methylanilino)uracil]
MIC (E. fecium): 1.25 µg/mL (≈ 1.89 µM) | MIC (E. fecalis): 0.95 µg/mL (≈ 1.43 µM) | MIC (S.aureus (Smith); [1]): 0.156 µg/mL (≈ 0.235 µM) | MIC (S.aureus (Smith); [2]): 0.21 µg/mL (≈ 0.317 µM) | MIC (MRSA1132): 0.31 µg/mL (≈ 0.468 µM) | MIC (MRSA1094): 0.94 µg/mL (≈ 1.42 µM) | MIC (MRSA 1123): 0.94 µg/mL (≈ 1.42 µM)

CCc1cc(Nc2cc(=O)n(CCCCN3CCN(c4cc5c(cc4F)c(=O)c(C(=O)O)cn5C4CC4)CC3)c(=O)[nH]2)ccc1C.CS(=O)(=O)O [Compound 10, 3-{4-[1-(1-cyclopropyl-3-carboxy-4-oxo-6-fluoro-7-quinolyl)-4-piperazinyl]butyl}-6-(3-ethyl-4-methylanilino)uracil methanesulfonate]
MIC (E. fecium): 2.5 µg/mL | MIC (E. fecalis): 1.25 µg/mL | MIC (S.aureus (Smith); [1]): 0.625 µg/mL | MIC (S.aureus (Smith); [2]): 0.625 µg/mL | MIC (MRSA1132): 0.625 µg/mL | MIC (MRSA1094): 1.25 µg/mL | MIC (MRSA 1123): 1.25 µg/mL

CCc1cc(Nc2cc(=O)n(CCCCN3CCN(c4cc5c(cc4F)c(=O)c(C(=O)O)cn5C4CC4)CC3)c(=O)[nH]2)ccc1C [Compound 2, 3-{4-[1-(1-cyclopropyl-3-carboxy-4-oxo-6-fluoro-7-quinolyl)-4-piperazinyl]butyl}-6-(3-ethyl-4-methylanilino)uracil]
MIC (E. fecium): 1.25 µg/mL (≈ 1.98 µM) | MIC (E. fecalis): 1.25 µg/mL (≈ 1.98 µM) | MIC (S.aureus (Smith); [1]): 0.313 µg/mL (≈ 0.496 µM) | MIC (S.aureus (Smith); [2]): 0.313 µg/mL (≈ 0.496 µM) | MIC (MRSA1132): 0.625 µg/mL (≈ 0.991 µM) | MIC (MRSA1094): 0.625 µg/mL (≈ 0.991 µM) | MIC (MRSA 1123): 0.625 µg/mL (≈ 0.991 µM)
